Consider one compound from patent US20050013852A1, “Dermal for amino laevulinic acid” (priority 2000, published 2005).

The conditions of series [1]: fresh ALA solution, approximate physiological value of 8, after two weeks; cited from earlier work.
The nature of series [2]: sedimentation (sinking speed) of ALA particles in NE solution. In kind it is physicochemical. Particulars: sieve fraction 60-90 μm.

Turning to `NCC(=O)CCC(=O)O` [ALA, 5-aminolaevulinic acid], the undecomposed active substance result in series [1] is given as “approx. 10%”. Further, the results for the “Sinking speed of the ALA particles in solution” value in series [2] (NE 12 % g/g in solution), in series [2] (NE 18 % g/g in solution) and in series [2] (NE 24 % g/g in solution) were 396 μm/10 s, 119 μm/10 s and 3 μm/10 s, respectively.
